This note sets out measurements from patent publication US8343961B2, “Substituted heterocyclic compounds” (ArQule, Inc., priority 2009, dated 2013).

The target of the assay is T1, Tec kinase (Homo sapiens, UniProt P42680).
T1 sequence (P42680 1-631): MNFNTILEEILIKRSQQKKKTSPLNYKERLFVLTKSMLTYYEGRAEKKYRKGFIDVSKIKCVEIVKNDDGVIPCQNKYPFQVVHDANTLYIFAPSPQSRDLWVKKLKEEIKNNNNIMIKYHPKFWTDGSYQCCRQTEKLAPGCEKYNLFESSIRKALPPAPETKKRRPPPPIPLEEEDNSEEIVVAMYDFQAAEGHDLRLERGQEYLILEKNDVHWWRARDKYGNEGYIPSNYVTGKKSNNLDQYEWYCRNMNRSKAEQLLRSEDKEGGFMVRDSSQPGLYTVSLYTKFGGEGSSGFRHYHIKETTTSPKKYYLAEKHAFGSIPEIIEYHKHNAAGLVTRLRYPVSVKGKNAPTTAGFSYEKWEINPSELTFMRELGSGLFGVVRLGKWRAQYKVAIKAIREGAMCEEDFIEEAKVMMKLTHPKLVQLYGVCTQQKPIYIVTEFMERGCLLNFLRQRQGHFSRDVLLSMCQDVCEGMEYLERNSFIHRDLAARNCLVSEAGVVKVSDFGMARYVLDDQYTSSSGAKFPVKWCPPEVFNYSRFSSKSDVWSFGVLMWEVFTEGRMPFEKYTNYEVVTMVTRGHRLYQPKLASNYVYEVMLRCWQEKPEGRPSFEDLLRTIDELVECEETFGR
In words: Tec Kinase Activity Assay. In kind it is biochemical. The following applies: read-out: Tec % INH, at 30 uM. As for the experimental part: The disclosed compounds were assayed for their ability to inhibit the activity of Tec kinase. Nunc Maxisorb plates were coated with streptavidin by overnight incubation with 100 μL per well of 1 μg/mL Streptavidin in DPBS. Prior to the start of the experiment, the plates were washed with TBST (3×200 μL) and blocked for at least 1 hour by adding 150 μL of 5% BSA/TBST. The plates were washed with TBST (3×200 μL/well) and left dry immediately before the capture step.
The test articles and controls (Staurosporine and Sutent) were prepared using the following assay buffer @ 3× desired final concentration (50 mM Tris-HCl, 0.02 mg/mL BSA, 10 mM MgCl2, 0.1 mM Na3VO4, 1 mM EGTA, 75 μM ATP0.01% NP-40, 2 mM DTT in 10% glycerol/water). In a reaction plate were added rapidly 20 μL test article (or control) and 20 μL TEC 0.25 ng/4. The plate was incubated for 30 minutes. To the reaction plate was added 20 μL of Pyk-2.5 ng/μL. The plate was incubated at room temperature for two hours. From the reaction plate, 50 μL was transferred to the streptavidin coated plate. The capture plate was incubated at room temperature for 30 minutes then washed 6× with TBST. To the capture plate was added 100 μL/well of Cell Signaling anti-phospho tyrosine at a dilution of 1:3000 in 2% BSA/TBST. The plate was incubated for one hour at room temperature then washed 6× with TBST. To the capture plate was added 100 μL/well of Alkaline Phosphatase Tagged Goat anti Mouse Antibody at a dilution of 1:4000 in 2% BSA/TBST. The plate was incubated for one hour at room temperature then washed 6× with TBST. The fluorescent readout was initiated by the addition of 100 μL/well of Attophos reagent (6 mg/10 mL). The reading was done on the Perkin Elmer Envision system.

As for `COc1cccc(CN2CCN(c3nc(N)nc4[nH]ncc34)Cc3ccccc32)c1` [Compound 1, 4-[1-(3-methoxybenzyl)-1,2,3,5-tetrahydro-4H-1,4-benzodiazepin-4-yl]-1H-pyrazolo[3,4-d]pyrimidin-6-amine], the inhibition at 30 µM is over 79%. As for `COc1cccc(CN2CCN(c3nc(N)nc4[nH]cnc34)Cc3ccccc32)c1` [Compound 2, 6-[1-(3-methoxybenzyl)-1,2,3,5-tetrahydro-4H-1,4-benzodiazepin-4-yl]-9H-purin-2-amine], the figure is 50 to 79%; as for `CC(C)c1ccc(CN2CCN(c3nc(N)nc4[nH]cnc34)Cc3ccccc32)cc1` [Compound 3, 6-[1-(4-isopropylbenzyl)-1,2,3,5-tetrahydro-4H-1,4-benzodiazepin-4-yl]-9H-purin-2-amine], under 50%; as for `CC(C)c1ccc(CN2CCN(c3nc(N)nc4[nH]ncc34)Cc3ccccc32)cc1` [Compound 4, 4-[1-(4-isopropylbenzyl)-1,2,3,5-tetrahydro-4H-1,4-benzodiazepin-4-yl]-1H-pyrazolo[3,4-d]pyrimidin-6-amine], 50 to 79%. For `Nc1nc(N2CCN(Cc3cccc(F)c3)c3ccccc3C2)c2cn[nH]c2n1` [Compound 6, 4-[1-(3-fluorobenzyl)-1,2,3,5-tetrahydro-4H-1,4-benzodiazepin-4-yl]-1H-pyrazolo[3,4-d]pyrimidin-6-amine], the inhibition at 30 µM fell in the range of 50 to 79%.

Turning to `Nc1nc(N2CCN(CCCc3cccc(Cl)c3)c3ccccc3C2)c2nc[nH]c2n1` [Compound 7, 6-{1-[3-(3-chlorophenyl)propyl]-1,2,3,5-tetrahydro-4H-1,4-benzodiazepin-4-yl}-9H-purin-2-amine], the inhibition at 30 µM fell in the range of 50 to 79%.

As for `COc1ccccc1CN1CCN(c2nc(N)nc3[nH]cnc23)Cc2ccccc21` [Compound 9, 6-[1-(2-methoxybenzyl)-1,2,3,5-tetrahydro-4H-1,4-benzodiazepin-4-yl]-9H-purin-2-amine], the inhibition at 30 µM fell in the range of 50 to 79%. For `COc1ccccc1CN1CCN(c2nc(N)nc3[nH]ncc23)Cc2ccccc21` [Compound 10, 4-[1-(2-methoxybenzyl)-1,2,3,5-tetrahydro-4H-1,4-benzodiazepin-4-yl]-1H-pyrazolo[3,4-d]pyrimidin-6-amine], the inhibition at 30 µM is over 79%. As for `Cc1ccccc1CN1CCN(c2nc(N)nc3[nH]cnc23)Cc2ccccc21` [Compound 11, 6-[1-(2-methylbenzyl)-1,2,3,5-tetrahydro-4H-1,4-benzodiazepin-4-yl]-9H-purin-2-amine], the figure is 50 to 79%; as for `Cc1ccccc1CN1CCN(c2nc(N)nc3[nH]ncc23)Cc2ccccc21` [Compound 12, 4-[1-(2-methylbenzyl)-1,2,3,5-tetrahydro-4H-1,4-benzodiazepin-4-yl]-1H-pyrazolo[3,4-d]pyrimidin-6-amine], 50 to 79%. Then `Nc1nc(N2CCN(Cc3ccccc3Cl)c3ccccc3C2)c2nc[nH]c2n1` [Compound 13, 6-[1-(2-chlorobenzyl)-1,2,3,5-tetrahydro-4H-1,4-benzodiazepin-4-yl]-9H-purin-2-amine], with under 50%; and `Nc1nc(N2CCN(Cc3ccc(F)cc3)c3ccccc3C2)c2nc[nH]c2n1` [Compound 15, 6-[1-(4-fluorobenzyl)-1,2,3,5-tetrahydro-4H-1,4-benzodiazepin-4-yl]-9H-purin-2-amine], with 50 to 79%. As for `Nc1nc(N2CCN(Cc3ccc(F)cc3)c3ccccc3C2)c2cn[nH]c2n1` [Compound 16, 4-[1-(4-fluorobenzyl)-1,2,3,5-tetrahydro-4H-1,4-benzodiazepin-4-yl]-1H-pyrazolo[3,4-d]pyrimidin-6-amine], the figure is 50 to 79%; as for `Nc1nc(N2CCN(Cc3cccc4ccccc34)c3ccccc3C2)c2nc[nH]c2n1` [Compound 17, 6-[1-(1-naphthylmethyl)-1,2,3,5-tetrahydro-4H-1,4-benzodiazepin-4-yl]-9H-purin-2-amine], 50 to 79%; as for `Nc1nc(N2CCN(Cc3cccc(C(F)(F)F)c3)c3ccccc3C2)c2nc[nH]c2n1` [Compound 20, 6-{1-[3-(trifluoromethyl)benzyl]-1,2,3,5-tetrahydro-4H-1,4-benzodiazepin-4-yl}-9H-purin-2-amine], 50 to 79%.

Turning to `Nc1nc(N2CCN(Cc3cccc(Cl)c3)c3ccccc3C2)c2nc[nH]c2n1` [Compound 24, 6-[1-(3-chlorobenzyl)-1,2,3,5-tetrahydro-4H-1,4-benzodiazepin-4-yl]-9H-purin-2-amine], the inhibition at 30 µM fell in the range of 50 to 79%. `Nc1nc(N2CCN(Cc3cccc(Cl)c3)c3ccccc3C2)c2cn[nH]c2n1` [Compound 25, 4-[1-(3-chlorobenzyl)-1,2,3,5-tetrahydro-4H-1,4-benzodiazepin-4-yl]-1H-pyrazolo[3,4-d]pyrimidin-6-amine]: the inhibition at 30 µM fell in the range of 50 to 79%.

As for `Cc1ccc(CN2CCN(c3nc(N)nc4[nH]cnc34)Cc3ccccc32)cc1` [Compound 26, 6-[1-(4-methylbenzyl)-1,2,3,5-tetrahydro-4H-1,4-benzodiazepin-4-yl]-9H-purin-2-amine], the inhibition at 30 µM is under 50%.

`COc1ccc(CN2CCN(c3nc(N)nc4[nH]cnc34)Cc3ccccc32)cc1OC` [Compound 27, 6-[1-(3,4-dimethoxybenzyl)-1,2,3,5-tetrahydro-4H-1,4-benzodiazepin-4-yl]-9H-purin-2-amine]: the inhibition at 30 µM is 50 to 79%. Then `Nc1nc(N2CCN(Cc3ccc(Cl)cc3Cl)c3ccccc3C2)c2nc[nH]c2n1` [Compound 31, 6-[1-(2,4-dichlorobenzyl)-1,2,3,5-tetrahydro-4H-1,4-benzodiazepin-4-yl]-9H-purin-2-amine], with under 50%; and `Cc1cccc(CN2CCN(c3nc(N)nc4[nH]cnc34)Cc3ccccc32)c1` [Compound 33, 6-[1-(3-methylbenzyl)-1,2,3,5-tetrahydro-4H-1,4-benzodiazepin-4-yl]-9H-purin-2-amine], with under 50%; and `Cc1cccc(CN2CCN(c3nc(N)nc4[nH]ncc34)Cc3ccccc32)c1` [Compound 34, 4-[1-(3-methylbenzyl)-1,2,3,5-tetrahydro-4H-1,4-benzodiazepin-4-yl]-1H-pyrazolo[3,4-d]pyrimidin-6-amine], with 50 to 79%. Take `COc1ccc(OC)c(CN2CCN(c3nc(N)nc4[nH]cnc34)Cc3ccccc32)c1` [Compound 35, 6-[1-(2,5-dimethoxybenzyl)-1,2,3,5-tetrahydro-4H-1,4-benzodiazepin-4-yl]-9H-purin-2-amine]: the inhibition at 30 µM was 50 to 79%. Consider `Nc1nc(N2CCN(Cc3ccc(F)cc3F)c3ccccc3C2)c2nc[nH]c2n1` [Compound 37, 6-[1-(2,4-difluorobenzyl)-1,2,3,5-tetrahydro-4H-1,4-benzodiazepin-4-yl]-9H-purin-2-amine], for which the inhibition at 30 µM fell in the range of 50 to 79%.

Regarding `Nc1nc(N2CCN(Cc3ccc(F)cc3F)c3ccccc3C2)c2cn[nH]c2n1` [Compound 38, 4-[1-(2,4-difluorobenzyl)-1,2,3,5-tetrahydro-4H-1,4-benzodiazepin-4-yl]-1H-pyrazolo[3,4-d]pyrimidin-6-amine], the inhibition at 30 µM was 50 to 79%. As to `Nc1nc(N2CCN(CCCc3ccccc3)c3ccccc3C2)c2nc[nH]c2n1` [Compound 40, 6-[1-(3-phenylpropyl)-1,2,3,5-tetrahydro-4H-1,4-benzodiazepin-4-yl]-9H-purin-2-amine], the inhibition at 30 µM was over 79%. Consider `Nc1nc(N2CCN(CCCc3ccccc3)c3ccccc3C2)c2cn[nH]c2n1` [Compound 41, 4-[1-(3-phenylpropyl)-1,2,3,5-tetrahydro-4H-1,4-benzodiazepin-4-yl]-1H-pyrazolo[3,4-d]pyrimidin-6-amine], for which the inhibition at 30 µM is 50 to 79%. Then `Nc1nc(N2CCN(Cc3ccc(Cl)c(Cl)c3)c3ccccc3C2)c2nc[nH]c2n1` [Compound 42, 6-[1-(3,4-dichlorobenzyl)-1,2,3,5-tetrahydro-4H-1,4-benzodiazepin-4-yl]-9H-purin-2-amine], with under 50%.
